According to patent publication US8916702B2 (priority 2012, dated 2014):
Like-named read-outs stand apart in the source and are kept apart here.

Tested on: HCV pseudoparticles (genotype 1a HCV E1 and E2 envelope, H77C isolate)
Assay: microbe, parasite or virus in culture
Assay type: cell-based
Settings: Hepatitis C virus
[1] = Huh-7, 48 h, read-out: Activity (EC50 class), HCV pseudoparticle infection of Huh7 cells, luciferase 2 days after infection, EC50 expressed as class A/B
[2] = Huh-7, read-out: Activity (EC50 class), HCV pseudoparticles (genotype 1a, H77C) in Huh7 cells, EC50 expressed as class A/B
[3] = Huh-7, 48 h, HCV pseudoparticle infection of Huh7 cells, luciferase 2 days after infection, average of duplicates

SMILES: CC(C)(C)OC(=O)N1CCC(CNC(=O)C(=O)NCC[C@H](NC(=O)c2ccc(Nc3nc(NC4(c5ccc(Cl)cc5)CC4)nc(OCC(F)(F)F)n3)cc2)C(=O)O)CC1 [Compound 1213]
- EC50 [1]: 0.01 to 10 nM

SMILES: CN(CCCN(C)C(=O)c1ccc(Nc2nc(NC3(c4ccc(Cl)cc4)CC3)nc(OCC(F)(F)F)n2)cc1)C(=O)C(=O)Nc1ccc(F)cc1F [Compound 3426]
- EC50 [2]: 0.01 to 10 nM

SMILES: COC(=O)[C@H](CCNC(=O)C(=O)NCc1cc(F)ccc1F)NC(=O)c1ccc(Nc2nc(NC3(c4ccc(Cl)cc4)CC3)nc(OCC(F)(F)F)n2)cc1 [Compound 1157]
- EC50 [1]: 0.01 to 10 nM

SMILES: CCOC(=O)[C@H](CNC(=O)C(=O)N(C)C)NC(=O)c1ccc(Nc2nc(NC3(c4ccc(Cl)cc4)CC3)nc(OCC(F)(F)F)n2)cc1 [Compound 1020, (S)-ethyl 2-(4-(4-(1-(4-chlorophenyl)cyclopropylamino)-6-(2,2,2-trifluoroethoxy)-1,3,5-triazin-2-ylamino)benzamido)-3-(2-(dimethylamino)-2-oxoacetamido)propanoate]
- EC50 [1]: 0.01 to 10 nM

SMILES: Cc1nccn1Cc1ccc(NC(=O)C(=O)NC[C@H](NC(=O)c2ccc(Nc3nc(NC4(c5ccc(Cl)cc5)CC4)nc(OCC(F)(F)F)n3)cc2)C(=O)O)cc1 [Compound 3287]
- EC50 [2]: 0.01 to 10 nM

SMILES: O=C(NCC[C@H](NC(=O)c1ccc(Nc2nc(NC3(c4ccc(Cl)cc4)CC3)nc(OCC(F)(F)F)n2)cc1)C(=O)O)C(=O)NCC1(CN2CCCN2)CC1 [Compound 1443]
- EC50 [1]: 0.01 to 10 nM

SMILES: Cc1nc(-c2ccc(NC(=O)C(=O)NCCC(NC(=O)c3ccc(Nc4nc(NC5(c6ccc(Cl)cc6)CC5)nc(OCC(F)(F)F)n4)cc3)C(=O)O)cc2)cs1 (stereo not shown) [Compound 3528]
- EC50 [2]: 0.01 to 10 nM

SMILES: COC(=O)[C@H](CNC(=O)C(=O)NCCc1c[nH]cn1)NC(=O)c1ccc(Nc2nc(NC3(c4ccc(Cl)cc4)CC3)nc(OCC(F)(F)F)n2)cc1 [Compound 1295]
- EC50 [1]: 10 to 1000 nM

SMILES: CC(C)(CNC(=O)C(=O)NS(C)(=O)=O)CNC(=O)c1ccc(Nc2nc(NC3(c4ccc(Cl)cc4)CC3)nc(OCC(F)(F)F)n2)cc1 [Compound 3031]
- EC50 [2]: 0.01 to 10 nM

SMILES: COc1ccc(NC(=O)C(=O)NCC(C)(C)CNC(=O)c2ccc(Nc3nc(NC4(c5ccc(Cl)cc5)CC4)nc(OCC(F)(F)F)n3)cc2)cc1F [Compound 3072]
- EC50 [2]: 0.01 to 10 nM

SMILES: C=Cc1ccccc1NC(=O)C(=O)NCC(C)(C)CNC(=O)c1ccc(Nc2nc(NC3(c4ccc(Cl)cc4)CC3)nc(OCC(F)(F)F)n2)cc1 [Compound 3362]
- EC50 [2]: 0.01 to 10 nM

SMILES: O=C(NCC[C@@H](NC(=O)c1ccc(Nc2nc(NC3(c4ccc(Cl)cc4)CC3)nc(OCC(F)(F)F)n2)cc1)C(=O)O)C(=O)Nc1ccc(F)c(F)c1F [Compound 1538]
- EC50 [1]: 0.01 to 10 nM

SMILES: COC(=O)[C@H](CNC(=O)C(=O)N[C@H]1C[C@@H]2C[C@@H]([C@@H]1C)C2(C)C)NC(=O)c1ccc(Nc2nc(NC3(c4ccc(Cl)cc4)CC3)nc(OCC(F)(F)F)n2)cc1 [Compound 1066]
- EC50 [1]: 0.01 to 10 nM

SMILES: CC(C)(CNC(=O)C(=O)Nc1ccc(-c2ccccc2)cc1)CNC(=O)c1ccc(Nc2nc(NC3(c4ccc(Cl)cc4)CC3)nc(OCC(F)(F)F)n2)cc1 [Compound 1590]
- EC50 [1]: 0.01 to 10 nM

SMILES: COc1cc(OC)nc(-c2ccc(NC(=O)C(=O)NCCC(NC(=O)c3ccc(Nc4nc(NC5(c6ccc(Cl)cc6)CC5)nc(OCC(F)(F)F)n4)cc3)C(=O)O)cc2)n1 (stereo not shown) [Compound 3523]
- EC50 [2]: 0.01 to 10 nM

SMILES: CC(C)(CNC(=O)C(=O)Nc1cccc(F)c1)CNC(=O)c1ccc(Nc2nc(NC3(c4ccc(Cl)cc4)CC3)nc(OCC(F)(F)F)n2)cc1 [Compound 1546]
- EC50 [1]: 0.01 to 10 nM

SMILES: COC(=O)[C@H](CNC(=O)C(=O)Nc1ccc(Oc2ccc(F)cc2)cc1)NC(=O)c1ccc(Nc2nc(NC3(c4ccc(Cl)cc4)CC3)nc(OCC(F)(F)F)n2)cc1 [Compound 3184]
- EC50 [2]: 0.01 to 10 nM

SMILES: COC(=O)[C@H](CCNC(=O)C(=O)N[C@@H]1C[C@@H]2CC[C@H]1C2)NC(=O)c1ccc(Nc2nc(NC3(c4ccc(Cl)cc4)CC3)nc(OCC(F)(F)F)n2)cc1 [Compound 1102]
- EC50 [1]: 0.01 to 10 nM

SMILES: COc1ccc(NC(=O)C(=O)NCC[C@H](NC(=O)c2ccc(Nc3nc(NC4(c5ccc(Cl)cc5)CC4)nc(OCC(F)(F)F)n3)cc2)C(=O)O)cn1 [Compound 1262]
- EC50 [1]: 0.01 to 10 nM

SMILES: O=C(Nc1ccc(F)cc1F)C(=O)N(CCO)CCCNC(=O)c1ccc(Nc2nc(NC3(c4ccc(Cl)cc4)CC3)nc(OCC(F)(F)F)n2)cc1 [Compound 3503]
- EC50 [2]: 0.01 to 10 nM

SMILES: COc1cc(Nc2nc(NC3(c4ccc(Cl)cc4)CC3)nc(OCC(F)(F)F)n2)ccc1C(=O)NCC(C)(C)CNC(=O)C(N)=O [Compound 3387]
- EC50 (Huh-7, 48 h, HCV pseudoparticles (genotype 1a, H77C) in Huh7 cells, average of duplicate, luciferase 2 days after infection): 0.068 nM
- EC50 [2]: 0.01 to 10 nM

SMILES: COC(=O)[C@H](CCNC(=O)C(=O)NCCc1cccnc1)NC(=O)c1ccc(Nc2nc(NC3(c4ccc(Cl)cc4)CC3)nc(OCC(F)(F)F)n2)cc1 [Compound 1316]
- EC50 [3]: 0.57 nM
- EC50 [1]: 0.01 to 10 nM

SMILES: Cn1ccc(NC(=O)C(=O)NC[C@H](NC(=O)c2ccc(Nc3nc(NC4(c5ccc(Cl)cc5)CC4)nc(OCC(F)(F)F)n3)cc2)C(=O)O)n1 [Compound 1351]
- EC50 [1]: 0.01 to 10 nM

SMILES: CC(C)(C)c1ccc(NC(=O)C(=O)NC[C@H](NC(=O)c2ccc(Nc3nc(NC4(c5ccc(Cl)cc5)CC4)nc(OCC(F)(F)F)n3)cc2)C(=O)O)cc1 [Compound 3294]
- EC50 [2]: 0.01 to 10 nM

SMILES: CN(C)CCOc1ccc(NC(=O)C(=O)NC[C@H](NC(=O)c2ccc(Nc3nc(NC4(c5ccc(Cl)cc5)CC4)nc(OCC(F)(F)F)n3)cc2)C(=O)Cl)cn1 [Compound 3790]
- EC50 (Huh-7, 48 h, read-out: Activity (EC50 class), HCV pseudoparticles, Huh7 cells, luciferase 2 days after infection, average of duplicates): 0.01 to 10 nM

SMILES: O=C(NCC1CCCc2ccccc21)C(=O)NC[C@@H](NC(=O)c1ccc(Nc2nc(NC3(c4ccc(Cl)cc4)CC3)nc(OCC(F)(F)F)n2)cc1)C(=O)O (stereo partly shown) [Compound 1410]
- EC50 [1]: 0.01 to 10 nM

SMILES: COC(=O)[C@H](CCNC(=O)C(=O)Nc1ccc(Cn2cncn2)cc1)NC(=O)c1ccc(Nc2nc(NC3(c4ccc(Cl)cc4)CC3)nc(OCC(F)(F)F)n2)cc1 [Compound 3299]
- EC50 [2]: 0.01 to 10 nM

SMILES: COC(=O)[C@H](CCNC(=O)C(=O)N(C)c1ccccc1)NC(=O)c1ccc(Nc2nc(NC3(c4ccc(Cl)cc4)CC3)nc(OCC(F)(F)F)n2)cc1 [Compound 1235]
- EC50 [3]: 0.53 nM
- EC50 [1]: 0.01 to 10 nM

SMILES: Cn1cc(NC(=O)C(=O)NCC(C)(C)CNC(=O)c2ccc(Nc3nc(NC4(c5ccc(Cl)cc5)CC4)nc(OCC(F)(F)F)n3)cc2)cn1 [Compound 3176]
- EC50 [2]: 0.01 to 10 nM

SMILES: COC(=O)[C@H](CCNC(=O)C(=O)NC1CCC(O)CC1)NC(=O)c1ccc(Nc2nc(NC3(c4ccc(Cl)cc4)CC3)nc(OCC(F)(F)F)n2)cc1 (stereo partly shown) [Compound 1073]
- EC50 [1]: 0.01 to 10 nM

SMILES: NC(=O)C(=O)NCCC[C@H](NC(=O)c1ccc(Nc2nc(NC3(c4ccc(Cl)cc4)CC3)nc(OCC(F)(F)F)n2)cc1)C(=O)O [Compound 1016, (S)-5-(2-amino-2-oxoacetamido)-2-(4-(4-(1-(4-chlorophenyl)cyclopropylamino)-6-(2,2,2-trifluoroethoxy)-1,3,5-triazin-2-ylamino)benzamido)pentanoic acid]
- EC50 [1]: 0.01 to 10 nM

SMILES: COC(=O)[C@H](CCNC(=O)C(=O)NCC1CCCCC1)NC(=O)c1ccc(Nc2nc(NC3(c4ccc(Cl)cc4)CC3)nc(OCC(F)(F)F)n2)cc1 [Compound 1143]
- EC50 [1]: 0.01 to 10 nM

SMILES: COC(=O)[C@H](CNC(=O)C(=O)Nc1ccnn1C)NC(=O)c1ccc(Nc2nc(NC3(c4ccc(Cl)cc4)CC3)nc(OCC(F)(F)F)n2)cc1 [Compound 1260]
- EC50 [1]: 0.01 to 10 nM

SMILES: O=C(NC[C@H](NC(=O)c1ccc(Nc2nc(NC3(c4ccc(Cl)cc4)CC3)nc(OCC(F)(F)F)n2)cc1)C(=O)O)C(=O)NC1Cc2ccccc2C1 [Compound 1403]
- EC50 [1]: 0.01 to 10 nM
